# Measurements published in patent EP0429304A2, “Pyridone-carboxylic acid derivatives and their use as veterinary medicines” (SHIONOGI SEIYAKU KABUSHIKI KAISHA trading under the name of …, priority 1989, dated 1991).
# Where two headings read alike, the source gives them in different places.
# Columns and labels:
# [1] = tested on: Mycoplasma gallisepticum (MG) S6; assay: In vitro sensitivity test (liquid dilution method); assay type: cell-based; conditions: 37°C, 7 days
# Experimental: (§1) Survey of the sensitivity of the compound (I) to various strains of microorganisms was performed by a liquid dilution method […] an agar dilution method, in which the bacteria used were of animal origin and included the following strains (15 strains out of 11 bacteria): Chicken-origin strain: Mycoplasma gallisepticum (MG), Mycoplasma synoviae (MS), Hemophilus paragallinarum (H.pg) and Escherichia coli (E.coli); Pig-origin strain: Mycoplasma hyopneumoniae (Mh), Hemophilus pleuropneumonia (H.pp) and Bordetella bronchiseptica (B.br); Fish-origin strain: Pasteurella piscicida (P.pis) and Streptococcus sp (Str.sp); others: Escherichia coli (E. coli), Salmonella typhimurium (S.typhi) and Staphylococcus aureus (S.au).
# (§2) Of these bacteria, the strains belonging to MG, MS and Mh were cultured at 37°C for 7 days by a liquid dilution method, of which the culture medium comprised: 12 % horse-serum added "PPLO" (agar manufactured by Difco) medium for MG; 12 % pig-serum, 0.01 % βNAD (nicotinamide adenine dinucleotide) added Frey medium for MS; 0.5 % lactoalbumin added Hank's solution, 10 % horse-serum, 0.5 % yeast extract (25 %) for Mh, and the agar dilution method was applied to the strains belonging to H.pg, H.pp, S.typhi, E.coli, S.au and B.br. Specifically, the H.pg strain was cultured in a 5 % chicken-serum added chicken bouillon medium and the H.pp strain was cultured in a heart infusion agar added with 10 % sheep defibered blood and 0.05 % βNAD. In case of the H.pg and P.pp strains, observation was made after cultivation at 37°C for 20 hours under 10 % CO₂. Mueller Hinton agar (Difco) was used for the strains belonging to S.typhi, E.coli, S.au and B.br, and observation was made after cultivation at 37°C for 20 to 24 hours. P.pis and Str.sp, both being of fish-origin, were respectively cultured at 25°C for 40 to 48 hours in a 1.5 % NaCl added heart infusion agar and in a sensitive disk medium.
# [2] = tested on: Mycoplasma hyopneumoniae (Mh) ST-11; assay: In vitro sensitivity test (liquid dilution method); assay type: cell-based; conditions: 37°C, 7 days
# Experimental: as §1, §2
# [3] = tested on: Bordetella bronchiseptica (B.br) ABU-1; assay: In vitro sensitivity test (agar dilution method); assay type: cell-based; conditions: 37°C, 20 to 24 hours
# Experimental: as §1, §2
# [4] = tested on: Escherichia coli (E.coli) E-17, chicken-origin strain isolated from the field; assay: In vitro sensitivity test (agar dilution method); assay type: cell-based; conditions: 37°C, 20 to 24 hours
# Experimental: as §1, §2
# [5] = tested on: Escherichia coli (E.coli) JC-2; assay: In vitro sensitivity test (agar dilution method); assay type: cell-based; conditions: 37°C, 20 to 24 hours
# Experimental: as §1, §2
# [6] = tested on: Hemophilus paragallinarum (H.pg) 221; assay: In vitro sensitivity test (agar dilution method); assay type: cell-based; conditions: agar dilution, 37°C, 20 hours, 10 % CO₂
# Experimental: as §1, §2
# [7] = tested on: Hemophilus paragallinarum (H.pg) S-1; assay: In vitro sensitivity test (agar dilution method); assay type: cell-based; conditions: agar dilution, 37°C, 20 hours, 10 % CO₂
# Experimental: as §1, §2
# [8] = tested on: Hemophilus pleuropneumonia (H.pp) M-1; assay: In vitro sensitivity test (agar dilution method); assay type: cell-based; conditions: 37°C, 20 hours, 10 % CO₂
# Experimental: as §1, §2
# [9] = tested on: Salmonella typhimurium (S.typhi) 13311; assay: In vitro sensitivity test (agar dilution method); assay type: cell-based; conditions: 37°C, 20 to 24 hours
# Experimental: as §1, §2
# [10] = tested on: Staphylococcus aureus (S.au) 209P; assay: In vitro sensitivity test (agar dilution method); assay type: cell-based; conditions: 37°C, 20 to 24 hours
# Experimental: as §1, §2
# [11] = tested on: Pasteurella piscicida (P.pis) No. 2; assay: In vitro sensitivity test; assay type: cell-based; conditions: 25°C, 40 to 48 hours
# Experimental: as §1, §2
# [12] = tested on: Streptococcus sp (Str.sp) SNO6119; assay: In vitro sensitivity test; assay type: cell-based; conditions: 25°C, 40 to 48 hours
# Experimental: as §1, §2
# [13] = tested on: TS-resistant strain of MG; assay type: in vivo, chicken; conditions: for Infectious index Left air sack + / Infectious index Left air sack ++ / Infectious index Left air sack +++ / Infectious index Left air sack - / Infectious index Right air sack + / Infectious index Right air sack ++ / Infectious index Right air sack +++ / Infectious index Right air sack -: count of fowl; for Infectious index Left air sack + / Infectious index Left air sack ++ / Infectious index Left air sack +++ / Infectious index Left air sack - / Infectious index Right air sack + / Infectious index Right air sack ++ / Infectious index Right air sack +++ / Infectious index Right air sack - / Number of fowl having air sack lesions / Number of infected fowl/Number of fowl tested: 9-days chicken; for antimicrobial activity compared with ERFX: in vivo, po; for Number of infected fowl/Number of fowl tested: 3.5 x 10³ CFU/fowl
# TS-resistant MG = assay: Experimental MG infection to chicken, through bait; assay type: in vivo; conditions: 9-days chicken, 6.6 x 10³ CFU/fowl, dissection 6th day after inoculation
# [14] = oral 1.56 mg/kg, 2.2 x 10³ CFU/fowl
# [15] = oral 6.25 mg/kg, 2.2 x 10³ CFU/fowl
# [16] = oral 12.5 mg/kg, 2.2 x 10³ CFU/fowl
# [17] = oral 25.0 mg/kg, 2.2 x 10³ CFU/fowl
# [18] = oral 6.25 mg/kg, 1.7 x 10³ CFU/fowl
# [19] = oral 12.5 mg/kg, 1.7 x 10³ CFU/fowl
# [20] = oral 25.0 mg/kg, 1.7 x 10³ CFU/fowl
smiles,measurement,setting,value
"CNC[C@@]12CCC[C@@H]1CN(c1c(Cl)cc3c(=O)c(C(=O)O)cn(C4CC4)c3c1Cl)C2.Cl (relative stereo) [I-10, 7-[(1R*,5S*)-1-methylaminomethyl-3-azabicyclo[3.3.0]octan-3-yl]-1-cyclopropyl-6,8-dichloro-1,4-dihydro-4-oxo-3-quinoline carboxylic acid hydrochloride]",In vitro Sensitivity Test MG S6,[1],0.00625 µg/mL
same,In vitro Sensitivity Test Mh ST-11,[2],0.05 µg/mL
same,In vitro Sensitivity Test B.br ABU-1,[3],12.5 µg/mL
same,In vitro Sensitivity Test E.coli E-17,[4],0.39 µg/ml
same,In vitro Sensitivity Test E.coli JC-2,[5],0.78 µg/mL
same,In vitro Sensitivity Test H.pg 221,[6],0.78 µg/mL
same,In vitro Sensitivity Test H.pg S-1,[7],0.39 µg/mL
same,In vitro Sensitivity Test H.pp M-1,[8],0.78 µg/mL
same,In vitro Sensitivity Test S.typhi 13311,[9],0.78 µg/mL
same,In vitro Sensitivity Test S.au 209P,[10],0.025 to 0.05 µg/mL
same,In vitro Sensitivity Test P.pis No. 2,[11],1.56 µg/mL
same,In vitro Sensitivity Test Str.sp SNO6119,[12],0.78 µg/mL
same,Infectious index Left air sack +,[13]; [14],0
same,Infectious index Left air sack ++,[13]; [14],0
same,Infectious index Left air sack +++,[13]; [14],0
same,Infectious index Left air sack -,[13]; [14],4
same,Infectious index Right air sack +,[13]; [14],2
same,Infectious index Right air sack ++,[13]; [14],0
same,Infectious index Right air sack +++,[13]; [14],1
same,Infectious index Right air sack -,[13]; [14],1
same,Infectious index Left air sack +,[13]; [15],1
same,Infectious index Left air sack ++,[13]; [15],0
same,Infectious index Left air sack +++,[13]; [15],0
same,Infectious index Left air sack -,[13]; [15],4
same,Infectious index Right air sack +,[13]; [15],2
same,Infectious index Right air sack ++,[13]; [15],2
same,Infectious index Right air sack +++,[13]; [15],0
same,Infectious index Right air sack -,[13]; [15],1
same,Infectious index Left air sack +,[13]; [16],0
same,Infectious index Left air sack ++,[13]; [16],0
same,Infectious index Left air sack +++,[13]; [16],0
same,Infectious index Left air sack -,[13]; [16],5
same,Infectious index Right air sack +,[13]; [16],0
same,Infectious index Right air sack ++,[13]; [16],0
same,Infectious index Right air sack +++,[13]; [16],0
same,Infectious index Right air sack -,[13]; [16],5
same,Infectious index Left air sack +,[13]; [17],0
same,Infectious index Left air sack ++,[13]; [17],0
same,Infectious index Left air sack +++,[13]; [17],0
same,Infectious index Left air sack -,[13]; [17],5
same,Infectious index Right air sack +,[13]; [17],0
same,Infectious index Right air sack ++,[13]; [17],0
same,Infectious index Right air sack +++,[13]; [17],0
same,Infectious index Right air sack -,[13]; [17],5
same,Number of fowl having air sack lesions,[13]; [14],3
same,Number of fowl having air sack lesions,[13]; [15],4
same,Number of fowl having air sack lesions,[13]; [16],0
same,Number of fowl having air sack lesions,[13]; [17],0
"CNC[C@@]12CCC[C@@H]1CN(c1c(F)cc3c(=O)c(C(=O)O)cn(C4CC4)c3c1Cl)C2.Cl (relative stereo) [I-11, 7-[(1R*,5S*)-1-methylaminomethyl-3-azabicyclo[3.3.0]octan-3-yl]-1-cyclopropyl-8-chloro-6-fluoro-1,4-dihydro-4-oxo-3-quinolinecarboxylic acid hydrochloride]",antimicrobial activity compared with ERFX,[13],nearly equal potency to ERFX
Cl.N[C@H]1CC[C@H]2CN(c3c(F)cc4c(=O)c(C(=O)O)cn(C5CC5)c4c3F)C[C@H]21 (relative stereo) [I-12],In vitro Sensitivity Test MG S6,[1],0.00313 µg/mL
same,In vitro Sensitivity Test Mh ST-11,[2],<0.00625 µg/mL
same,In vitro Sensitivity Test B.br ABU-1,[3],0.39 µg/mL
same,In vitro Sensitivity Test E.coli JC-2,[5],0.1 µg/mL
same,In vitro Sensitivity Test H.pp M-1,[8],0.2 µg/mL
same,In vitro Sensitivity Test S.typhi 13311,[9],0.1 µg/mL
same,In vitro Sensitivity Test S.au 209P,[10],0.1 µg/mL
same,In vitro Sensitivity Test P.pis No. 2,[11],0.39 µg/mL
same,In vitro Sensitivity Test Str.sp SNO6119,[12],0.78 µg/mL
same,antimicrobial activity compared with ERFX,[13],two times more effective than ERFX
same,complete inihibition of the lesions in air sac at a concentration of,"[13]; oral administration, MG-infected chicken",about 3.13 mg/kg
"CCn1cc(C(=O)O)c(=O)c2cc(F)c(N3C[C@H]4CCC[C@@]4(CNC)C3)c(F)c21.Cl (relative stereo) [I-19, 7-[(1R*,5S*)-1-methylaminomethyl-3-azabicyclo[3.3.0]octan-3-yl]-1-ethyl-6,8-difluoro-1,4-dihydro-4-oxo-3-quinolinecarboxylic acid hydrochloride]",In vitro Sensitivity Test MG S6,[1],0.00625 µg/mL
same,In vitro Sensitivity Test Mh ST-11,[2],0.39 µg/mL
same,In vitro Sensitivity Test E.coli JC-2,[5],0.39 µg/mL
same,In vitro Sensitivity Test H.pp M-1,[8],0.78 µg/mL
same,In vitro Sensitivity Test S.typhi 13311,[9],0.78 µg/mL
same,In vitro Sensitivity Test S.au 209P,[10],0.05 µg/mL
same,In vitro Sensitivity Test P.pis No. 2,[11],1.56 µg/mL
same,In vitro Sensitivity Test Str.sp SNO6119,[12],1.56 µg/mL
same,Number of infected fowl/Number of fowl tested,[13]; oral 1.56 mg/kg,3/5
same,Number of infected fowl/Number of fowl tested,[13]; oral 3.13 mg/kg,3/5
same,Number of infected fowl/Number of fowl tested,[13]; oral 6.25 mg/kg,1/5
same,Number of infected fowl/Number of fowl tested,TS-resistant MG; bait 31.3 ppm/Day,1/7
same,Number of infected fowl/Number of fowl tested,TS-resistant MG; bait 62.5 ppm/Day,0/7
same,Number of infected fowl/Number of fowl tested,TS-resistant MG; bait 125 ppm/Day,0/7
O=C(O)c1cn(C2CC2)c2c(F)c(N3CC4CCCC(=O)C4C3)c(F)cc2c1=O (stereo not shown) [I-4],In vitro Sensitivity Test MG S6,[1],0.05 µg/mL
same,In vitro Sensitivity Test Mh ST-11,[2],≦0.025 µg/ml
same,In vitro Sensitivity Test E.coli JC-2,[5],0.2 µg/mL
same,In vitro Sensitivity Test H.pp M-1,[8],0.2 µg/mL
same,In vitro Sensitivity Test S.typhi 13311,[9],0.39 µg/mL
same,In vitro Sensitivity Test S.au 209P,[10],0.05 µg/mL
same,In vitro Sensitivity Test P.pis No. 2,[11],6.25 µg/mL
same,In vitro Sensitivity Test Str.sp SNO6119,[12],0.39 µg/mL
same,Infectious index Left air sack +,[13]; [18],1
same,Infectious index Left air sack ++,[13]; [18],0
same,Infectious index Left air sack +++,[13]; [18],0
same,Infectious index Left air sack -,[13]; [18],3
same,Infectious index Right air sack +,[13]; [18],1
same,Infectious index Right air sack ++,[13]; [18],1
same,Infectious index Right air sack +++,[13]; [18],0
same,Infectious index Right air sack -,[13]; [18],2
same,Infectious index Left air sack +,[13]; [19],0
same,Infectious index Left air sack ++,[13]; [19],0
same,Infectious index Left air sack +++,[13]; [19],0
same,Infectious index Left air sack -,[13]; [19],5
same,Infectious index Right air sack +,[13]; [19],0
same,Infectious index Right air sack ++,[13]; [19],0
same,Infectious index Right air sack +++,[13]; [19],0
same,Infectious index Right air sack -,[13]; [19],5
same,Infectious index Left air sack +,[13]; [20],0
same,Infectious index Left air sack ++,[13]; [20],0
same,Infectious index Left air sack +++,[13]; [20],0
same,Infectious index Left air sack -,[13]; [20],5
same,Infectious index Right air sack +,[13]; [20],0
same,Infectious index Right air sack ++,[13]; [20],0
same,Infectious index Right air sack +++,[13]; [20],0
same,Infectious index Right air sack -,[13]; [20],5
same,Number of fowl having air sack lesions,[13]; [18],2
same,Number of fowl having air sack lesions,[13]; [19],0
same,Number of fowl having air sack lesions,[13]; [20],0
